Structures are written as SMILES.

The test system of one data set is Lepomis macrochirus. To be noted: acute; duration: 96 hours; mortality.
The test system of the next data set is Chrysoperla externa. To be noted: not reported; mortality.
A further data set has as its system Pimephales promelas. To be noted: chronic/long-term; duration: 32 days.
In a further data set the test system is Tagia sp. To be noted: acute; mortality.
The test system of another data set is Oncorhynchus mykiss. Conditions: acute; duration: 96 hours; mortality.
In a further data set the test system is Apis mellifera. Conditions: acute; duration: 48 hours; oral; unspecified; mortality.
Another data set has as its system Lymnaea stagnalis. Conditions: chronic/long-term; duration: 41 days.
In the next data set the test system is Aphidius rhopalosiphi. Conditions: not reported; reproduction.
The test system of the next data set is Anas platyrhynchos. To be noted: short-term; oral; feed; mortality.

Turning to `COc1cc(OC)nc(Oc2cccc(Oc3nc(OC)cc(OC)n3)c2C(=O)[O-])n1.[Na+]` [Bispyribac-sodium], the LC50 is more than 95 µg/mL in the data set with Lepomis macrochirus; more than 957 mg/kg in the data set on Tagia sp.; more than 95 µg/mL in the data set with Oncorhynchus mykiss; more than 2080 mg/kg in the data set with Coturnix coturnix (acute, oral, diet, mortality); more than 2060 mg/kg in the data set with Anas platyrhynchos. Further, the LEL in the data set on Chrysoperla externa was 30 g/ha; in the data set on Aphidius rhopalosiphi it was 3 g/ha. Besides, the NOEC in the data set on Pimephales promelas was not below 10 mg/L; in the data set on Coturnix coturnix (reproduction developmental, reproduction), 116 mg/kg-day; in the data set on Lymnaea stagnalis it was not below 10 mg/L. Besides, the LD50 in the data set on Coturnix coturnix (acute, oral, mortality) was more than 2250 mg/kg; in the data set with Apis mellifera it was more than 141 µg/piece; in the data set on Rattus norvegicus (acute, oral, mortality), 2640 mg/kg. In addition, the NOAEL came to 1.1 mg/kg-day in the data set on Rattus norvegicus (chronic, duration: 2 years, hematological); 1 mg/kg-day with Rattus norvegicus (reproduction developmental, histopathology: nonneoplastic); 7.2 mg/kg-day in the data set with Rattus norvegicus (subchronic, duration: 90 days, oral, clinical chemistry). The compound also gave an NOAEC in the data set on Rattus norvegicus (reproduction developmental, body weight) of 50 mg/kg-day.
